Test results published in patent US20180149606A1, “XENON BASED DRUG PROTEIN BINDING ASSAY” (priority 2016, published 2018).
One block for each compound: values may come before it.

Key:
[1] = target: T1, albumin (Bos taurus, UniProt P02769); set-up: other: bovine serum albumin whenever possible, close to 25 degrees Celsius; highest; conditions: bovine serum albumin whenever possible, close to 25 degrees Celsius; highest affinity site; cited from earlier work
[2] = target: T1, albumin; experiment: Xenon T2 relaxation measurement of drug binding to albumin (Tables 1 and 2); set-up: T2: unit not given here; conditions: 10 μM albumin, 9.4 T
Source text: Hyperpolarized ^129Xe was generated in a rubidium cell hyperpolarizer, and bubbled into the solution.
Hyperpolarized ^129Xe was magnetized in a rubidium cell hyperpolarizer, and bubbled into the solution.
Target sequence in this assay (P02769 25-607): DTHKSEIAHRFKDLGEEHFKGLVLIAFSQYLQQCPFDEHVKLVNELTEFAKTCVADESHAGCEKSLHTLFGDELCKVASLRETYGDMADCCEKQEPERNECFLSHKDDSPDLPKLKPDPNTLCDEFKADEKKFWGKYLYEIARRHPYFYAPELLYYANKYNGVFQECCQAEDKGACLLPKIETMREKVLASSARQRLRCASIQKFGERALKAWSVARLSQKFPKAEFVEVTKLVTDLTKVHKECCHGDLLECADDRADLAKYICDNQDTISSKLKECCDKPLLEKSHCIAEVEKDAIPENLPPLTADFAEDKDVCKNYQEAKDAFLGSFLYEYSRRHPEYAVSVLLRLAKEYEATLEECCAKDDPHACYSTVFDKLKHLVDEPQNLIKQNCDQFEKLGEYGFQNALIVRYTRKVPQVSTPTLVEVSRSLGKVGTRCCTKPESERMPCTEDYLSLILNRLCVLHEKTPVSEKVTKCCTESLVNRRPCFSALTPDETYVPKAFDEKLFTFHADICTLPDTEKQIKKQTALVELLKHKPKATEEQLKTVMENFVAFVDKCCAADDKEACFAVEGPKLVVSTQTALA

[3] = target: bovine serum albumin (Bos taurus, UniProt P02769); experiment: Drug titration of xenon T2 in 10 μM fatty acid free bovine serum albumin; type: binding; conditions: for effect on the xenon T2 of albumin: titration up to 1 mM drug, 9.4 T, 25 degrees Celsius
bovine serum albumin, sequence (P02769 25-607): as above
Method: The following experiments were performed with fatty acid free bovine serum albumin. It is important to note whether the albumin one uses contains fatty acids both because the fats will alter the binding affinity of a drug and also because they alter the relaxivity of albumin. The drug titrations were performed by preparing a 10 μM solution of bovine serum albumin into which aliquots of high concentration drug solutions were added. Most drugs, as well as all protein solutions, were dissolved in 1×PBS buffer. It is important to keep the pH of the solution constant when studying albumin because that protein has many different pH dependent conformations.
All solutions were made by dissolving the drugs in 1×PBS, with the exception of the tenoxicam solution. The T2 times of solutions containing high concentrations of drugs were measured. […] For the tenoxicam solution, about 400 μL of DMSO was added to a 10 mL solution of 1×PBS.
T2 times were measured using a standard CPMG pulse sequence with 100 ms long echo spacings. All experiments were performed at 9.4 Tesla using hyperpolarized xenon. This hyperpolarized xenon was prepared using a homebuilt spin exchange optical pumping based polarizer. The protein solution was attached to the polarizer's flow system and the pressurized to 60 psi. Xenon was bubbled into the protein solution at a rate of about 0.1 standard liters per minute. The gas mixture used contained 2% xenon, with the rest of the gases being helium and nitrogen. All experiments were performed at 25 degrees Celsius.
All protein solutions required the addition of an antifoaming agent in order to prevent the xenon from forcing the sample out of the NMR tube. […] 1-octanol was used as the antifoaming agent in this experiment. The concentration of 1-octanol used was 5 μL of alcohol per 10 mL of solution.

Structure (SMILES): Cn1c(=O)c2c(ncn2C)n(C)c1=O [Caffeine, caffeine]
- Highest Binding Affinity log10(Ka) [1]: 4.3
- Xenon relaxation time, T2 ([2]; 16 μM caffeine): 0.54 ± 0.04 s
- Xenon relaxation time, T2 ([2]; 43 μM caffeine): 0.47 ± 0.04 s
- Xenon relaxation time, T2 ([2]; 56 μM caffeine): 0.63 ± 0.04 s
- Xenon relaxation time, T2 ([2]; 100 μM caffeine): 0.69 ± 0.03 s
- Xenon relaxation time, T2 ([2]; 500 μM caffeine): 0.51 ± 0.03 s
- Xenon relaxation time, T2 ([2]; 5000 μM caffeine): 0.67 ± 0.04 s
- Xenon relaxation time, T2 ([2]; 80000 μM caffeine): 1.07 ± 0.03 s

- effect on the xenon T2 of albumin, repeated titration ([3]; higher concentrations of drug (beyond 1 mM), 10 μM BSA): no effect
- effect on the xenon T2 of albumin ([3]; 10 μM BSA): much weaker effect
- T2 ([2]; 70 μM flucloxacillin): 0.91 ± 0.04
- T2 ([2]; 200 μM flucloxacillin): 0.99 ± 0.04
- T2 ([2]; 250 μM flucloxacillin): 1.53 ± 0.05
- T2 ([2]; 450 μM flucloxacillin): 0.97 ± 0.03
- T2 ([2]; 2000 μM flucloxacillin): 0.73 ± 0.04
Structure (SMILES): Cc1onc(-c2c(F)cccc2Cl)c1C(=O)N[C@@H]1C(=O)N2[C@@H]1SC(C)(C)[C@@H]2C(=O)O [Flucloxacillin, flucloxacillin]
- Highest Binding Affinity log10(Ka) [1]: 4.6

Structure (SMILES): CCCCCCCC/C=C\CCCCCCCC(=O)[O-].[Na+] [Sodium Oleate, sodium oleate]
- Highest Binding Affinity log10(Ka) [1]: 8.0
- increase of xenon T2 ([3]; three times as much sodium oleate as albumin, 10 μM albumin): 3 s
- effect on the xenon T2 of albumin ([3]; 10 μM BSA): increased

Structure (SMILES): CN1C(C(=O)Nc2ccccn2)=C(O)c2sccc2S1(=O)=O [Tenoxicam, tenoxicam]
- Highest Binding Affinity log10(Ka) [1]: 5.4
